{
  "source": "patent US20210087217A1",
  "about": "“NUCLEOTIDE HEMI-SULFATE SALT FOR THE TREATMENT OF HEPATITIS C VIRUS” (Atea Pharmaceuticals, Inc., priority 2017, published 2021)",
  "key": {"[1]": {"assay": "Plasma profiles of Compound 2 metabolites in monkeys", "format": "in vivo, cynomolgus monkeys", "settings": "cynomolgus monkey, plasma, po"}, "[2]": {"assay": "Single ascending dose study of Compound 2 in GT1-HCV infected patients (Part B): safety, tolerability, pharmacokinetic", "format": "in vivo, human", "settings": "for AUC / Cmax / half-life: mean±SD", "method": "Subjects in Part B received a single dose of Compound 2 in the fasting state. Patients were confined to the clinic from Day −1 to Day 6.\nPart B was initiated after the safety (through Day 5) and plasma pharmacokinetic (through 24 h) data review from Cohort 3a in Part A. Available safety data (through Day 5) and pharmacokinetic data (through 24 h) was reviewed for the first cohort in Part B (Cohort 1b) before enrolling subsequent Part B cohorts. Subsequent Part B cohorts were only dosed following review of available safety and pharmacokinetic data from the respective doses in Part A as well as available safety (through Day 5) from the prior Part B cohorts.\nPatients infected with HCV were treatment-naïve, non-cirrhotic GT1-infected subjects with a viral load of ≥5 log10 IU/mL.\n(§1) Pharmacokinetic of Compound 1 and nucleoside metabolite 1-7 were measured following the single dose of Compound 2. […] Values are reported as mean±SD, except or Tmax where median (range) is reported.\nPlasma exposure of Compound 1 was dose-related while exposure of metabolite 1-7 was dose-proportional."}, "[3]": {"assay": "Head-to-head comparison of plasma levels in dogs dosed with Compound 1 and Compound 2", "format": "in vivo, dog", "settings": "dosed Compound 1 25 mg/kg or Compound 2 30 mg/kg, normalized to a dose of 25 mg/kg", "method": "A head-to-head comparison of dogs dosed with Compound 1 and Compound 2 was conducted."}, "[4]": {"assay": "Solubility in biorelevant test medias (water, SGF, FaSSIF, FeSSIF)"}, "[5]": {"system": "replicons containing the NS5B sequences from HCV patient plasma samples (GT1a, 1b, 2a, 2b, 3a-1, 3a-2, 4a and 4d)", "assay": "Replicons containing NS5B sequences from HCV patient plasma samples (clinical isolates)", "format": "cell-based", "settings": "clinical isolates of GT1, GT2, GT3, and GT4, FIG. 24"}, "[6]": {"assay": "Single ascending dose study of Compound 2 in healthy volunteers (Part A): safety, tolerability, pharmacokinetic", "format": "in vivo, human", "settings": "both sexes, human, in vivo", "method": "Compound 2 was tested in a single ascending dose (SAD) study to measure its safety, tolerability, and pharmacokinetic in healthy subjects (Part A). Part A was a randomized, double-blind, placebo-controlled SAD study. Healthy subjects in Part A received a single dose of Compound 2 or placebo in the fasting state. Subjects were confined to the clinic from Day −1 to Day 6.\nDosing in each cohort was staggered such that 2 subjects (1 active:1 placebo) were evaluated for 48 hours after dosing before the remainder of the cohort was dosed. Each cohort received Compound 2 in ascending order. Dosing of sequential cohorts occurred based on review of available safety data (through Day 5) and plasma pharmacokinetic data (through 24 h) of the prior cohort.\nAs pharmacokinetic and safety data emerged from prior cohorts, doses evaluated in Cohorts 3a-4a were adjusted by increments no more than 100 mg.\nHealthy volunteers in the Part A portion of the study were male and female subjects between the ages of 18 and 65. Active and placebo recipients were pooled within each Part A cohort to preserve the study blind.\nas §1"}, "in vitro": {"assay": "in vitro", "settings": "rat"}, "[7]": {"assay": "Plasma profiles of Compound 2 metabolites in rats", "settings": "male, Sprague-Dawley, rat, plasma, po, 500 mg/kg", "method": "The results for a single 500 mg/kg dose in rats is shown in FIG. 17 and the results for a single 30, 100, or 300 mg/kg dose in monkeys is shown in FIG. 18."}, "[8]": {"settings": "sofosbuvir 400 mg QD; cited from earlier work"}, "HCV RNA (GT1a HCV)": {"system": "HCV RNA (GT1a HCV)", "settings": "after 1 day of 400 mg monotherapy, GT1a HCV-infected subjects; cited from earlier work"}, "[9]": {"settings": "human, in vivo, 100 mg, GT1-HCV infected patients, Compound 2 100 mg"}, "[10]": {"settings": "human, in vivo, 300 mg, GT1-HCV infected patients, Compound 2 300 mg (first 300 mg line)"}, "[11]": {"settings": "human, in vivo, 300 mg, GT1-HCV infected patients, Compound 2 300 mg (second 300 mg line)"}, "[12]": {"settings": "human, in vivo, 400 mg, GT1-HCV infected patients, Compound 2 400 mg"}, "[13]": {"settings": "human, in vivo, 600 mg, GT1-HCV infected patients, Compound 2 600 mg"}},
  "data": [
    {"smiles": "CNc1nc(N)nc2c1ncn2[C@@H]1O[C@H](CO[P@@](=O)(N[C@@H](C)C(=O)OC(C)C)Oc2ccccc2)[C@@H](O)[C@@]1(C)F", "note": "[Compound 1, isopropyl((S)-(((2R,3R,4R,5R)-5-(2-Amino-6-(methylamino)-9H-purin-9-yl)-4-fluoro-3-hydroxy-4-methyltetrahydrofuran-2-yl)methoxy)(phenoxy)phosphoryl)-L-alaninate]", "values": [
      {"measurement": "AUC(0-t)", "setting": "[1]; 30 mg/kg", "value": 176, "unit": "ng·h/mL"},
      {"measurement": "Cmax", "setting": "[1]; 30 mg/kg", "value": 63.5, "unit": "ng/mL"},
      {"measurement": "Tmax", "setting": "[1]; 30 mg/kg", "value": "30 to 120", "unit": "min"},
      {"measurement": "AUC(0-t)", "setting": "[1]; 100 mg/kg", "value": 1100, "unit": "ng·h/mL"},
      {"measurement": "Cmax", "setting": "[1]; 100 mg/kg", "value": 783, "unit": "ng/mL"},
      {"measurement": "Tmax", "setting": "[1]; 100 mg/kg", "value": "60 to 120", "unit": "min"},
      {"measurement": "AUC(0-t)", "setting": "[1]; 300 mg/kg", "value": 1600, "unit": "ng·h/mL"},
      {"measurement": "Cmax", "setting": "[1]; 300 mg/kg", "value": 501, "unit": "ng/mL"},
      {"measurement": "Tmax", "setting": "[2]; GT1-HCV infected patients, Compound 2 300 mg (second 300 mg line), median (range)", "value": "0.5 (0.5-1.0) h"},
      {"measurement": "AUC", "setting": "[2]; [9]", "value": "179 ± 54.4", "unit": "ng·h/mL"},
      {"measurement": "Cmax", "setting": "[2]; [9]", "value": "212 ± 32", "unit": "ng/mL"},
      {"measurement": "half-life", "setting": "[2]; [9]", "value": "32.4 ± 7.2", "unit": "min"},
      {"measurement": "Tmax", "setting": "[2]; human, in vivo, 100 mg, read-out: Tmax", "value": 30, "unit": "min"},
      {"measurement": "AUC", "setting": "[2]; [10]", "value": "818 ± 475", "unit": "ng·h/mL"},
      {"measurement": "Cmax", "setting": "[2]; [10]", "value": "871 ± 590", "unit": "ng/mL"},
      {"measurement": "half-life", "setting": "[2]; [10]", "value": "38.4 ± 12", "unit": "min"},
      {"measurement": "AUC", "setting": "[2]; [11]", "value": "1860 ± 1020", "unit": "ng·h/mL"},
      {"measurement": "Cmax", "setting": "[2]; [11]", "value": "2280 ± 893", "unit": "ng/mL"},
      {"measurement": "half-life", "setting": "[2]; [11]", "value": "50.4 ± 10.8", "unit": "min"},
      {"measurement": "Tmax", "setting": "[2]; human, in vivo, 300 mg, read-out: Tmax", "value": 30, "unit": "min"},
      {"measurement": "AUC", "setting": "[2]; [12]", "value": "2410 ± 1010", "unit": "ng·h/mL"},
      {"measurement": "Cmax", "setting": "[2]; [12]", "value": "2680 ± 2110", "unit": "ng/mL"},
      {"measurement": "half-life", "setting": "[2]; [12]", "value": "51.6 ± 10.8", "unit": "min"},
      {"measurement": "Tmax", "setting": "[2]; human, in vivo, 400 mg, read-out: Tmax", "value": 60, "unit": "min"},
      {"measurement": "AUC", "setting": "[2]; [13]", "value": "4130 ± 1130", "unit": "ng·h/mL"},
      {"measurement": "Cmax", "setting": "[2]; [13]", "value": "3540 ± 1650", "unit": "ng/mL"},
      {"measurement": "half-life", "setting": "[2]; [13]", "value": "42 ± 7.8", "unit": "min"},
      {"measurement": "Tmax", "setting": "[2]; human, in vivo, 600 mg, read-out: Tmax", "value": 60, "unit": "min"},
      {"measurement": "Mean Dose-normalized AUC(0-4hr) for Compound 1", "setting": "[3]", "value": 0.2, "unit": "µM·h"},
      {"measurement": "Appearance in solubility test", "setting": "[4]; FaSSIF", "value": "Turbid"},
      {"measurement": "Solubility descriptive term", "setting": "[4]; FaSSIF", "value": "Slightly Soluble"},
      {"measurement": "Appearance in solubility test", "setting": "[4]; FeSSIF", "value": "Turbid"},
      {"measurement": "Solubility descriptive term", "setting": "[4]; FeSSIF", "value": "Slightly Soluble"},
      {"measurement": "Appearance in solubility test", "setting": "[4]; SGF", "value": "Clear Solution"},
      {"measurement": "Solubility descriptive term", "setting": "[4]; SGF", "value": "Sparingly"},
      {"measurement": "Appearance in solubility test", "setting": "[4]; Water", "value": "Clear Solution*"},
      {"measurement": "Solubility descriptive term", "setting": "[4]; Water", "value": "Slightly Soluble"},
      {"measurement": "EC95", "setting": "[5]", "value": "less than 25 ng/mL"},
      {"measurement": "AUC", "setting": "[6]; 50 mg", "value": "36.4 ± 12.3", "unit": "ng·h/mL"},
      {"measurement": "Cmax", "setting": "[6]; 50 mg", "value": "46.4 ± 17.6", "unit": "ng/mL"},
      {"measurement": "Tmax", "setting": "[6]; 50 mg", "value": 30, "unit": "min"},
      {"measurement": "half-life", "setting": "[6]; 50 mg", "value": "19.2 ± 1.2", "unit": "min"},
      {"measurement": "AUC", "setting": "[6]; 100 mg", "value": "167 ± 110", "unit": "ng·h/mL"},
      {"measurement": "Cmax", "setting": "[6]; 100 mg", "value": "156 ± 96.3", "unit": "ng/mL"},
      {"measurement": "Tmax", "setting": "[6]; 100 mg", "value": 30, "unit": "min"},
      {"measurement": "half-life", "setting": "[6]; 100 mg", "value": "31.8 ± 14.4", "unit": "min"},
      {"measurement": "AUC", "setting": "[6]; 200 mg", "value": "656 ± 255", "unit": "ng·h/mL"},
      {"measurement": "Cmax", "setting": "[6]; 200 mg", "value": "818 ± 443", "unit": "ng/mL"},
      {"measurement": "Tmax", "setting": "[6]; 200 mg", "value": 30, "unit": "min"},
      {"measurement": "half-life", "setting": "[6]; 200 mg", "value": "42.6 ± 9.6", "unit": "min"},
      {"measurement": "AUC", "setting": "[6]; 400 mg", "value": "1110 ± 326", "unit": "ng·h/mL"},
      {"measurement": "Cmax", "setting": "[6]; 400 mg", "value": "1190 ± 401", "unit": "ng/mL"},
      {"measurement": "Tmax", "setting": "[6]; 400 mg", "value": 30, "unit": "min"},
      {"measurement": "half-life", "setting": "[6]; 400 mg", "value": "51.6 ± 9", "unit": "min"},
      {"measurement": "half-life", "setting": "in vitro", "value": "< 2", "unit": "min"},
      {"measurement": "AUC(0-t)", "setting": "[7]", "value": 78.2, "unit": "ng·h/mL"},
      {"measurement": "Cmax", "setting": "[7]", "value": 60.8, "unit": "ng/mL"},
      {"measurement": "Tmax", "setting": "[7]", "value": 15, "unit": "min"}
    ]},
    {"smiles": "CC(C)OC(=O)[C@H](C)N[P@](=O)(OC[C@H]1O[C@@H](n2ccc(=O)[nH]c2=O)[C@](C)(F)[C@@H]1O)Oc1ccccc1", "note": "[sofosbuvir]", "values": [
      {"measurement": "Steady-state trough concentration (C24,ss) of the nucleoside metabolite", "setting": "[8]", "value": "approximately 100 ng/mL"},
      {"measurement": "HCV RNA reduction", "setting": "HCV RNA (GT1a HCV)", "value": 2, "unit": "log10 IU/mL"}
    ]}
  ]
}
